15 compounds from patent US20260151413A1, “ANTICANCER DRUG CONJUGATES” (Ariel Scientific Innovations Ltd., priority 2022, published 2026) can be followed below.

Series [1] deals with 10 hematological cell-lines. In words: In vitro cytotoxicity screening on the panel of hematological cell-lines (WST-1). The conditions noted are these: for effect on proliferation rate across the examined cell-lines: 10 hematological cell-lines, WST-1; for cytotoxic effect compared to the parental non-conjugated drug: chimera vs its parent drug. In general terms: Tetrazolium assays rely on reduction of a dye to a coloured formazan, in cell work by metabolically active cells.
Method: The above cells were cultured in RPMI medium (Gibco, Thermo Fisher Scientific Inc., USA). […] All media were supplemented with 10% heat-inactivated Fetal Bovine Serum (FBS, Biological industries, Israel), 2 mM glutamine (Biological industries, Israel) and 1% penicillin and streptomycin (Biological industries, Israel). Cells were cultured at 37° C. in a humidified incubator with 5% CO2.
Growth inhibition in hematological malignancies cell-lines was measured by tetrazolium WST-1 assay (Roche, Basel, Switzerland). Cells (1*10^4) were treated with various concentrations of the specific chimera or parental drug. After 48 h of incubation, 10 μl of WST-1 reagent was added to the plate and incubated for 1 h at 37° C., at which point the absorbance (450 nm) was measured in an ELISA plate reader (Synergy HTX multi-mode reader, Winooski, Vermont, USA).
MUTZ5 and MHH-CALL4; B-cell Acute lymphocytic leukemia (B-cell ALL) model. DND41; T-ALL model. KG-1a and OCI-AML-3; Acute myeloid leukemia (AML) model and HEL; erythroleukemia model.

Series [2] relates to MHH-CALL4. In words: WST-1 proliferation assay, MHH-CALL4. As to conditions: WST-1, 48 hours of treatment. Format: cell-based, human. On the procedure: (§1) Albert Pinhasov (Ariel University, Ariel, Israel). […] Granta cells were kindly provided by Prof.
(§2) Table 3 [resents the calculated IC50 values (μM) for each chimera in different hematological malignancies cell-lines. The proliferation rate was measured by WST-1 assay after 48 hours of treatment. The result shown for each concentration point represents the […]

The test system of series [3] is Rec-1. The experiment in a line: WST-1 proliferation assay, Rec-1. Format: cell-based, human. As to conditions: WST-1, 48 hours of treatment. On the procedure: as §1, §2
The subject of series [4] is OCI-AML3. In words: WST-1 proliferation assay, OCI-AML3. Format: cell-based. As to conditions: WST-1, 48 hours of treatment. On the procedure:
as §1, §2

The subject of series [5] is MINO. In words: WST-1 proliferation assay, MINO. Format: cell-based, human. As to conditions: WST-1, 48 hours of treatment. On the procedure:
as §1, §2

Series [6] concerns MUTZ5. In words: WST-1 proliferation assay, MUTZ5. Format: cell-based, human. As to conditions: WST-1, 48 hours of treatment. On the procedure: as §1, §2
Series [7] deals with KG-1a. In words: WST-1 proliferation assay, KG-1a. As to conditions: WST-1, 48 hours of treatment. Format: cell-based. On the procedure: as §1, §2
The test system of series [8] is JEKO-1. In words: WST-1 proliferation assay, JEKO-1. Format: cell-based, human. As to conditions: WST-1, 48 hours of treatment. On the procedure:
as §1, §2

Series [9] concerns HEL. The experiment in a line: WST-1 proliferation assay, HEL. Format: cell-based, human. As to conditions: WST-1, 48 hours of treatment. On the procedure:
as §1, §2

For series [10], the system named is GRANTA. In words: WST-1 proliferation assay, GRANTA. The conditions noted are these: WST-1, 48 hours of treatment. Format: cell-based. On the procedure: as §1, §2
In series [11] the test system is DND41. The experiment in a line: WST-1 proliferation assay, DND41. As to conditions: WST-1, 48 hours of treatment. Format: cell-based, human. On the procedure: as §1, §2
For series [12], the system named is aggressive papillary thyroid cancer cells. The experiment in a line: Proliferation of aggressive papillary thyroid cancer cells. Format: cell-based. As to conditions: 10 nM and 100 nM, with respect to DMSO control. On the procedure: Chimera 9 (also referred to herein as Doxorubizen) was evaluated in two different concentrations (10 nM and 100 nM) on aggressive papillary thyroid cancer and with respect to the parent anticancer drug Doxorubicin.

In series [13] the test system is Human primary anaplastic thyroid cancer (ATC) cells. In words: Vitality/proliferation of primary anaplastic thyroid cancer cells. Format: cell-based. The conditions noted are these: 100 nM, 250 nM, 500 nM; 3, 5 and 7 days. On the procedure:
Human primary anaplastic thyroid cancer (ATC) cells were treated with chimera 9 (100 nM, 250 nM, and 500 nM), or Doxorubicin (100 nM, 250 nM, and 500 nM), or with vehicle, for 3, 5, and 7 days.

In series [14] the test system is triple negative breast cancer (TNBC) MDA 231 cells. On the procedure:
Five-week-old athymic Nude-Foxn 1nu male mice (ENVIGO Labs, Nes Ziona, Israel) were subcutaneously inoculated on the dorsal left side with […] (1×10^6 cell) into nu/nu mice, 0.2 mL per mouse) and tumors allowed to establish over time. When tumor volume reached 100 mm^3, Doxorubicin (Dox) and Doxorubizen (Chimera 9) were administered intraperitoneally (ip). Animals were removed from an experiment if either of the following conditions were fulfilled: reduction of 20% or more body weight; tumor volume>0.55 cm^3. The tumor dimensions were measured using a Vernier caliper and the volume was calculated according to the equation: Volume (mm^3) ¼ length×width×width×½ three times per week. The in vivo experiments were approved by the Animal Ethics Committee (Authorization number IL-179-06-19).
Chimera 9 was also evaluated for its effect on breast cancer model. For this evaluation, […] nude female (6-8 weeks) mice (groups 1, 2, two mice per group, groups 3, 4, 5 three mice per group) were inoculated with triple negative breast cancer (TNBC) MDA 231 cells. Group 1 was used as the control for tumor growth. After 10 days, mice were […] (ip) administered with Doxorubicin (groups 2 and 4) and Chimera 9 (Doxorubizen) (groups 3 and 5) in the following regime: ip administration of 2.5 mg/kg Doxorubicin once per week (group 2) and three sequential days per week (group 4); ip administration of 3.5 mg/kg chimera 9 once per week (group 3) and three sequential days per week (group 5). Overall experiment carried out for 5 weeks and 4 days, when the tumor volumes for all the groups were monitored. Tumors were then resected and measured.

`COC(=O)N(C)/N=N/c1ccc(Cn2cc(F)c(=O)[nH]c2=O)cc1` [Chimera 5, (E)-methyl3-(4-((5-fluoro-2,4-dioxo-3,4-dihydropyrimidin-1(2H)-yl)methyl)phenyl)-1-methyltriaz-2-ene-1-carboxylate]: the “effect on proliferation rate across the examined cell-lines” value in series [1] was “decreased the proliferation rate in at least 3 cell-lines”.
Turning to `COC(=O)N(C)/N=N/c1ccc(COc2c(OC)cc([C@@H]3c4cc5c(cc4[C@@H](OC4O[C@@H]6CO[C@@H](C)O[C@H]6[C@H](O)[C@H]4O)[C@H]4COC(=O)[C@H]34)OCO5)cc2OC)cc1` (stereo partly shown) [Chimera 3], the IC50 (in general, the concentration at which inhibition is half-maximal) is more than 50 µM in [2]; 23.7 µM in series [3]; 10.2 µM in [4]; 30.3 µM in [5]; 34.8 µM in [6]; more than 50 µM in series [7]. Moreover, the IC50 is 28.6 µM in series [8], 43100 nM in [9], 42.1 µM in [10] and more than 50 µM in [11]. Further, the “cytotoxic effect compared to the parental non-conjugated drug” value in series [1] was “did not show prevalence over Etoposide”.
Take `COc1cccc2c1C(=O)c1c(O)c3c(c(O)c1C2=O)C[C@@](O)(C(=O)CO)C[C@@H]3O[C@H]1C[C@H](N)[C@H](O)[C@H](C)O1` [Doxorubicin, reference compound]: in series [12], the “proliferation of thyroid cancer cells” value is recorded as “no effect on cell proliferation”. Moreover, the “vitality/proliferation of primary human ATC cells” value in series [13] is recorded as “reduced the vitality/proliferation of primary human ATC cells significantly”. For the same compound, in series [14] (Group 2: ip 2.5 mg/kg once per week), the “day of sacrifice due to large tumor volumes and severe animal conditions” value was determined as 12 days. In addition, the “day of death due to over toxication” value in [14] (Group 4: ip 2.5 mg/kg, three sequential days per week) stood at 20 days.
`COC(=O)N(C)/N=N/c1ccc(CNc2cc3c4c(cccc4c2)C(=O)N(CCN(C)C)C3=O)cc1` [Chimera 8]: the IC50 in [2] was 36 µM; in [3], more than 50 µM; in [4], 12.7 µM; in series [5], 13.3 µM; in series [6], 10.3 µM; in series [7], 19.1 µM. The IC50 in series [8] was 7.12 µM; in [9] it was 1970 nM; in series [10], more than 50 µM; in series [11] it was 20.9 µM.
For the compound `COC(=O)N(C)/N=N/c1ccc(CNc2cccc3c2CN(C2CCC(=O)NC2=O)C3=O)cc1` (stereo not shown) [Chimera 2], the IC50 in series [2] was 24 µM; in series [3], 14.2 µM; in [4], 17.1 µM; in series [5] it was 5.7 µM; in series [6] it was 47.5 µM; in series [7], 46 µM. Further, the IC50 in series [8] was 22.8 µM; in series [9], 1170 nM; in [10], more than 50 µM; in series [11] it was more than 50 µM.
As to `COC(=O)N(C)/N=N/c1ccc(CNc2nc3ccc(OC(F)(F)F)cc3s2)cc1` [Chimera 7, (E)-methyl1-methyl-3-(4-(((6-(trifluoromethoxy)benzo [d]thiazol2yl)amino)methyl)phenyl) triaz-2-ene-1-carboxylate], in series [1], the “effect on proliferation rate across the examined cell-lines” value is reported as “decreased the proliferation rate in at least 3 cell-lines” and the “cytotoxic effect compared to the parental non-conjugated drug” value is “reduced proliferation rate of numerous cell-lines”.
For `COC(=O)N(C)/N=N/c1ccc(CNc2nc3ccc(OC(F)(F)F)cc3s2)cc1` [Chimera 7], the IC50 is 5.25 µM in [2]; 18 µM in series [3]; 14.2 µM in series [4]; 7.8 µM in series [5]; 1.81 µM in series [6]; 23 µM in series [7]. Moreover, the IC50 was more than 50 µM in series [8], 2370 nM in series [9], 43 µM in series [10] and 2.37 µM in [11].
Consider `COC(=O)N(C)/N=N/c1ccc(CSc2ncnc3nc[nH]c23)cc1` [Chimera 6], for which the IC50 in series [2] was determined as 16.6 µM; in series [3] it was 20.5 µM; in series [4], 8.76 µM; in series [5], 6.88 µM; in series [6], 31 µM; in series [7], 39.2 µM. The IC50 was 39.5 µM in series [8], 13500 nM in series [9], more than 50 µM in series [10] and more than 50 µM in [11].
With `CCc1c2c(nc3ccc(OCc4ccc(/N=N\N(C)C(=O)OC)cc4)cc13)-c1cc3c(c(=O)n1C2)COC(=O)[C@]3(O)CC` [Chimera 1, (S,Z)-methyl3-(4-(((4,11-diethyl-4-hydroxy-3,14-dioxo-3,4,12,14-tetrahydro-1H pyrano [3′,4′:6,7]indolizino[1,2-b]quinolin-9-yl)oxy)methyl)phenyl)-1-methyltriaz-2-ene-1-carboxylate], in [1], the “effect on proliferation rate across the examined cell-lines” value is given as “inhibited the proliferation rate in all the examined cell-lines” and the “cytotoxic effect compared to the parental non-conjugated drug” value is reported as “less than superior cytotoxic effect”.
On to `COC(=O)N(C)/N=N/c1ccc(CNc2cccc3c2CN(C2CCC(=O)NC2=O)C3=O)cc1` (stereo not shown) [Chimera 2, (E)-methyl 3-(4-(((2-(2,6-dioxopiperidin-3-yl)-1-oxoisoindolin-4-yl)amino)methyl)phenyl)-1-methyltriaz-2-ene-1-carboxylate], for which the “effect on proliferation rate across the examined cell-lines” value in series [1] was “decreased the proliferation rate in at least 3 cell-lines”.
For the compound `COC(=O)N(C)/N=N/c1ccc(COc2cc(/C=C\c3cc(OC)c(OC)c(OC)c3)ccc2OC)cc1` [Chimera 4, (E)-methyl3-(4-((2-methoxy-5-((Z)-3,4,5-trimethoxystyryl)phenoxy)methyl)phenyl)-1-methyltriaz-2-ene-1-carboxylate], in series [1], the “effect on proliferation rate across the examined cell-lines” value is “decreased the proliferation rate in at least 3 cell-lines” and the “cytotoxic effect compared to the parental non-conjugated drug” value is “less than superior cytotoxic effect”.
As for `COC(=O)N(C)/N=N/c1ccc(CSc2ncnc3nc[nH]c23)cc1` [Chimera 6, (E)-methyl 3-(4-(((7H-purin-6-yl)thio)methyl)phenyl)-1-methyltriaz-2-ene-1-carboxylate], the “effect on proliferation rate across the examined cell-lines” value in series [1] is listed as “decreased the proliferation rate in at least 3 cell-lines”.
Turning to `COC(=O)N(C)/N=N/c1ccc(COc2cc(/C=C\c3cc(OC)c(OC)c(OC)c3)ccc2OC)cc1` [Chimera 4], the IC50 in series [2] is 21.6 µM; in [3] it was 0.13 µM; in [4], more than 50 µM; in series [5], 0.69 µM; in [6], 39.8 µM; in series [7], 4.72 µM. For the same compound, the half-inhibitory concentration (IC50) came to 13.8 µM in [8], 1630 nM in [9], 41.5 µM in series [10] and 27.6 µM in series [11].
Regarding `COC(=O)N(C)/N=N/c1ccc(Cn2cc(F)c(=O)[nH]c2=O)cc1` [Chimera 5], the half-maximal inhibitory concentration (IC50) in [2] came out at 32.4 µM; in [3] it was 0.13 µM; in series [4], 22.7 µM; in series [5] it was 29.7 µM; in [6], 44.6 µM; in series [7], 27.7 µM. The concentration for half-maximal inhibition (IC50) in [8] is more than 50 µM; in series [9] it was 2720 nM; in series [10], more than 50 µM; in series [11], 30.9 µM.
As for `CCc1c2c(nc3ccc(OCc4ccc(N=NN(C)C(=O)OC)cc4)cc13)-c1cc3c(c(=O)n1C2)COC(=O)C3(O)CC` (stereo not shown) [Chimera 1], the IC50 is 1.2 µM in [2]; 0.59 µM in series [3]; 12.3 µM in series [4]; 0.63 µM in series [5]; 3.02 µM in series [6]; 1.04 µM in series [7]. Also, the IC50 in series [8] worked out at 0.36 µM; in series [9], 550 nM; in [10], 8.42 µM; in series [11], 1.99 µM.
